Reference: patent publication US7247615B2, “Peptide agonists of prostate-specific antigen and uses therefor” (priority 2001, dated 2007)
“And” between values parts separate entries of the source, which are not always exact repeats. Equal entries are not always repeated.

Key:
HLA-A2 [1] = molecular target: T1, HLA-A2 (Homo sapiens, UniProt P04439, D140Y/D185E/D98H/E176V/E277Q/G131W/G231S/I119V/I121R/I166T/I218V/L300P/L318F/N151K/N90K/P208A/P217A/Q86G/Q94H/R138H/R169H/T345S); experiment: Stability of peptide-HLA-A2 complex on T2A2 cells (brefeldin A); format: binding; details: 50 μg/ml overnight, 8-h observation period, FIG. 2
T1 construct: endogenous in cells; host or cells: T2A2 / 174CEM-T2 (T2) transport deletion mutant cell line
Experimental: FIG. 2. Comparison of the stability of the complex of the PSA-3 or PSA-3A peptide with HLA-A2. T2A2 cells were incubated with PSA-3 (open squares) or PSA-3A (closed squares) peptide at a concentration of 50 μg/ml overnight and then washed free of unbound peptide and incubated with brefeldin A to block delivery of new class I molecules to cell surface. At indicated times, cells were stained for the presence of surface peptide-HLA-A2 complexes. Results are expressed in relative % binding as compared to 100% binding at time zero.
Studies were then undertaken to examine the stability of the peptideMHC complex for peptides PSA-3 and PSA-3A. Peptides were incubated with T2A2 cells overnight, washed free of unbound peptide and incubated with brefeldin-A to block delivery of new class I molecules to the cell surface. At various time points, cells were analyzed for the presence of peptide-HLA-A2 complexes. […] Thus, both the ability of the peptide to bind MHC (FIGS. 1A–1B) and the stability (FIG. 2), i.e., avidity of the peptide-MHC complex, are greater for the PSA-3A peptide than the native PSA-3 peptide.

V8T cells = format: cell-based, human
T-PSA-3 cells = format: cell-based, human
DCs = experiment: IL-12 production by peptide-pulsed DCs in the presence of T cells; format: cell-based, human
Experimental: It has been previously shown that the activation of T cells by peptidepulsed DCs is related to the level of IL-12 production by the DCs. Studies were therefore conducted to determine the levels of IL-12 production by DCs pulsed with PSA-3 and PSA-3A peptides in the presence of T cells. […] When DCs pulsed with the PSA3A peptide were incubated with both T cell lines, the DCs incubated with the T-PSA-3A line again produced higher levels of IL-12 than those peptide-pulsed DCs incubated with the T cell line T-PSA-3 (Table 3).

T-PSA-3A cells = experiment: IFN-γ production by T cell line stimulated with peptide-pulsed DCs (ELISA); format: cell-based, human; details: peptide 25 μg/ml
Experimental: Detection of Cytokines. Supernatant of T cells exposed for 24 h to peptide-pulsed infected DC, rV-PSA infected DC, or rV-PSA-3A infected DC, in IL-2-free medium at various responder: stimulator ratios, were screened for secretion of IFN-γ using an ELISA kit (R & D Systems, Minneapolis, Minn.). The results were calculated as pg/ml. A Cytometric Bead Array (CBA) system (BD PharMingen, San Diego, Calif.) was also used to determine the secretion of multiple cytokines by specific T cell lines. The CBA system uses the fluorescence detection by flow cytometry to measure soluble analytes in a particle-based immunoassay. The BD human Th1/Th2 cytokine CBA Kit was employed to measure IL-2, IL-4, IL-5, IL-10, TNF-α, and IFN-γ protein levels in a single sample. The cytokine capture beads were mixed with PE-conjugated detection antibodies and then incubated with recombinant cytokine standards or test samples to form sandwich complexes. The samples results were generated in graphical and tabular format using BD CBA analysis software. The results were calculated as pg/ml.
Table 2: Production of IFN-γ by a T cell line stimulated with PSA-3 or agonist PSA-3A peptides. The PSA-specific T cell line T-PSA-3A was used as effector cells at IVS-3. T-PSA-3A cells were stimulated with irradiated HLA-A2 positive allogeneic DCs either pulsed with PSA-3 or PSA-3A peptide at a concentration of 25 μg/ml and an effector-to-APC ratio of 10:1. After 24-h culture supernatants were collected and screened for the secretion of IFN-γ. APC=antigen […].

HLA-A2 [2] = molecular target: T1, HLA-A2; experiment: Peptide binding to HLA-A2 on T2A2 cells (flow cytometry)
Experimental: Single-color flow cytometric analysis. The method for single-color flow cytometric analysis was described previously (F. Guadagni et al., 1990, Cancer Res. 50:6248–6255). Briefly, cells were washed three times with cold Ca^2+ and Mg^2+-free DPBS and then stained for 1 h with mAb against HLA-A2 (A2,69, One Lambda, Inc., Canoga Park, Calif.), using 10 μg of the 1× working dilution per 10^6 cells. Mineral oil plasmacytoma-104E (Cappel/Organon Teknika Corp., West Chester, Pa.) was used as an isotype control. The cells were washed three times and incubated with a 1:100 dilution of fluorescein isothiocyanate (FITC)-labeled goat anti-mouse immunoglobulin (IgG) (Kirkegaard and Perry Laboratories, Gaithersburg, Md.). The cells were immediately analyzed using a Becton Dickinson FACScan equipped with a blue laser with an excitation of […] at 488 nm. Data were gathered from 10,000 live cells, stored and used to generate results.
Peptide Binding to HLA-A2. […] Briefly, 1×10^6 cells in serum-free Iscove's modified Dulbecco's complete medium were incubated with peptides at a concentration of 50 μg/ml in 24 well culture plates at 37° C. in 5% CO2. Flow cytometry for peptide binding was performed using T2 cells and single-color analysis. After cells were washed three times in DPBS, as described above, they were incubated for 1 h with HLA-A2 specific MAb (One Lambda, Inc.) using 10 μg of a 1× working dilution per 10^6 cells. UPC-10 (Cappel/Organon Teknika) was used as isotype control. The cells were washed three times and incubated with 1:100 dilution of FITC-labeled anti-mouse IgG (Becton Dickinson). Analysis was conducted with the FACScan, as described above. Cells were maintained on ice during all cell preparation and staining.
The four analogs were then tested for binding to the HLA-A2 positive T2A2 cells as described in the Examples section. The NCA peptide was previously shown to not bind to HLA-A2, and was used as a negative […] control. Peptides were added to T2A2 cells at concentrations of 0 to 50 μg/ml.

VLSNDVCAQV (SEQ ID NO:3) [PSA-3A]
Stability of peptide-HLA-A2 complexes (HLA-A2 [1]): more stable than PSA-3 complexes
Production of IFN-γ by V8T (V8T cells): <13.0 pg/mL
Production of IFN-γ by None (no T cells) (T-PSA-3 cells): <13.0 pg/mL
Production of IFN-γ by T-PSA-3 (T-PSA-3 cells): 946.6 pg/mL and 915.9 pg/mL
IL-12 PRODUCTION (DCs; APC DC, T cell line T-PSA-3, peptide 25 μg/ml, 10:1, 24 h, IVS-4): 6.0 pg/ml/5 × 10^5 DC
IL-12 PRODUCTION (DCs; APC DC, T cell line T-PSA-3A, peptide 25 μg/ml, 10:1, 24 h, IVS-4): 27.5 pg/ml/5 × 10^5 DC
IL-12 PRODUCTION (DCs; no APC, T cell line T-PSA-3, peptide 25 μg/ml, 24 h): <0.6 pg/ml/5 × 10^5 DC
IL-12 PRODUCTION (DCs; no APC, T cell line T-PSA-3A, peptide 25 μg/ml, 24 h): <0.6 pg/ml/5 × 10^5 DC
PRODUCTION OF IFN-γ (T-PSA-3A cells; APC DCs, T-PSA-3A T cells present, effector-to-APC 10:1, 24 h, IVS-3): 566 pg/mL
PRODUCTION OF IFN-γ (T-PSA-3A cells; APC DCs, no T cell, 24 h): <15 pg/mL
PRODUCTION OF IFN-γ (T-PSA-3A cells; no APC, T-PSA-3A T cells present, 24 h): <15 pg/mL
Binding to HLA-A2 at lower peptide concentrations (HLA-A2 [2]; FIG. 1B): clearly bound higher levels of HLA-A2 than PSA-3
Binding to HLA-A2 (relative fluorescence, MFI) (HLA-A2 [2]; peptide 0 to 50 μg/ml, FIG. 1A): higher levels than PSA-3
